Reference: patent US20250195448A1, “CELL TYPE SELECTIVE DELIVERY OF EXOSOME CARGO USING NOTCH LIGAND-RECEPTOR SYSTEM” (Northwestern University, priority 2023, published 2025)
Entries after “also recorded” stand apart in the source; their conditions may differ.

Tests used:
Notch signaling pathway = assay: Pharmacological treatments of neurons, Mg^2+-free glycine-induced Notch activation (WB); assay type: cell-based, rat; settings: 90 mins after treatment; for effect on Mg^2+-free glycine-induced elevation of activated-Notch1, -Notch2 and Hes1 protein levels: APV 50 μM, dynasore 80 μM pretreatment
Method: Synaptic NMDARs were activated as previously described^16,63. […] The osmolarity was adjusted to 300-330 mOsm/l). […] The osmolarity was adjusted to 300-330 mOsm/l). […] Then, neuron culture medium was carefully removed from dishes. […] Then neurons were washed twice with Veh solution, the saved culture medium was returned and maintained in incubator for assigned durations (37° C., 5% CO2). Neuron samples were collected and resuspended in a RIPA lysis buffer (50 mM Tris, 150 mM NaCl, 0.1% SDS, 1 mM EDTA, 0.5% sodium deoxycholate, 1% Triton X-100, 1× protease inhibitor cocktail (Thermo Fisher Scientific, Cat #78443), 1× phosphatase inhibitor (Thermo Fisher Scientific, Cat #78420), pH 7.4). The resuspended lysates were vortexed for 20 s and then incubated on ice for 30 min and centrifuged at 16,200 g for 15 mins. The supernatants were mixed with 4×SDS loading buffer at a 3:1 ratio. The mixtures were boiled at 95° C. for 5 mins. […] Fiji (NIH) was used for quantification.

Alix = Alix phosphorylation in Mg^2+-free glycine-treated neurons (IP of Alix, WB p-S/T); assay type: cell-based, rat; settings: for effect on Mg^2+-free glycine-induced Alix phosphorylation: H89 20 μM, staurosporine 1 μM, APV 50 μM, KN93 10 μM, AIP 1 μM
Method: Neurons were pretreated with DMSO (1:1000) or dynasore (80 μM, Sigma-Aldrich, Cat #SML0340) or H89 (20 μM, Sigma-Aldrich, Cat #B1427) or staurosporine (1 μM, Tocris, Cat #1285) or APV (50 μM, Sigma-Aldrich, Cat #A5282) or KN93 (10 μM, Sigma-Aldrich, Cat #K1385) or AIP (1 μM, Anaspec, Cat #AS-64929) for 30 mins at 37° C. in a humidified 5% CO2 atmosphere incubator. Then, neuron culture medium was carefully removed from dishes. The collected medium was then kept at 37° C. in a humidified 5% CO2 atmosphere incubator. The neurons were washed three times with Veh or Mg^2+-free glycine and incubated for 5 min with solutions containing different inhibitors. Then neurons were washed twice with Veh solution, the saved culture medium was returned and maintained in incubator for assigned durations (37° C., 5% CO2).
WedgeWell™ Tris-Glycine Mini Protein Gels (Fisher Scientific, Cat #XP04125BOX, XP04120BOX and XV00100PK20) were used for electrophoresis. After electrophoresis, proteins were transferred onto nitrocellulose membranes (Thermo Fisher, Cat #4500002). For WB, the membranes were blocked with 10% bovine serum albumin (BSA, Jackson immunoResearch laboratories, Cat #001-000-162) in TBST solution (Tris-buffered saline, 0.1% Tween 20) for one hour in room temperature (RT). Then membranes were incubated with primary antibodies in incubation solution (3% BSA in TBST) overnight at 4° C. with mild agitation. Following primary antibodies were used: mouse anti-Alix (1:1000, Cell Signaling Technology, Cat #2171S, RRID: AB_2299455), rabbit anti-Alix (1:1000, Cell Signaling Technology, Cat #18269, RRID: AB_2798796), mouse anti-Tsg101 (1:1000, Santa Cruz Biotechnology, Cat #sc-7964, RRID: AB_671392), mouse anti-CD81 (1:1000, Santa Cruz Biotechnology, Cat #sc-166029, RRID: AB_2275892), rabbit anti-Notch1ICD (1:1000, Abcam, Cat #ab52627, RRID: AB_881725), rabbit anti-Notch2ICD (1:1000, Cell Signaling Technology, Cat #5732S, RRID: AB_10693319), rabbit anti-activated Notch1 (1:1000, Abcam, Cat #ab52301, RRID: AB_881726), rabbit anti-activated Notch2 (1:1000, MyBioSource, Cat #MBS9410510), rabbit anti-Sdcbp (1:1000, Abcam, Cat #ab19903, RRID: AB_445200 and Cell Signaling Technology, Cat #27964), rabbit anti-GM130 (1:1000, Abcam, Cat #ab52649, RRID: AB_880266), rabbit anti-Hes1 (1:1000, Cell Signaling Technology, Cat #11988S, RRID: AB_2728766 and Abcam, Cat #ab71559, RRID: AB_1209570), chicken anti-Tuj1 (1:2000, Novus Biologicals, Cat #NB100-1612, RRID: AB_10000548), rabbit anti-p-S/T (1:1000, Cell Signaling Technology, Cat #9624S, RRID: AB_331817), mouse anti-PSD95 (1:2000, Thermo Fisher Scientific, Cat #MA1-046, RRID: AB_2092361), rabbit anti-PSD95(pS295) (1:1000, Abcam, Cat #ab76108, RRID: AB_1310621), rabbit anti-GAPDH (1:2000, Cell Signaling Technology, Cat #2118, RRID: AB_561053), rabbit anti-GluA1 (1:1000, EMD Millipore, Cat #PC246, RRID: AB_564636) and guinea pig anti-Bassoon (1:1000, Synaptic Systems, Cat #141 318, RRID: AB_2927388). After 3×10 mins intense wash in TBST solution, membranes were incubated with corresponding secondary antibodies for one hour at RT with mild agitation. Following secondary antibodies were used: goat-anti-rabbit poly-HRP (1:2000, Thermo Scientific, Cat #32260), goat-anti-mouse poly-HRP (1:2000, Thermo Scientific, Cat #32230), goat-anti-chicken HRP (1:2000, Abcam, Cat #ab97135) and Goat anti-Guinea Pig poly-HRP (1:2000, Fisher Scientific, Cat #OB6090-05). […] Fiji (NIH) was used for quantification.

hippocampal neurons = assay: Mg^2+-free glycine-induced neuronal EV release; assay type: cell-based; settings: for effect on Mg^2+-free glycine-induced EV release: APV 50 μM, H89 20 μM
Method: Synaptic NMDARs were activated as previously described^16,63. […] The osmolarity was adjusted to 300-330 mOsm/l). […] The osmolarity was adjusted to 300-330 mOsm/l). […] The EV-containing supernatant was centrifuged at 3000×g for 30 mins at 4° C. to remove residual neurons and large debris. Then, the supernatant was concentrated using a molecular weight cutoff (MWCO) filter (10 KDa, EMD Millipore, Cat #UFC801024) to 0.5 ml. The concentrated solution was then fractionated into 10 fractions (0.5 ml in EV-free PBS, MEDIATECH INC CA, Cat #21-040-CV) using a qE-Voriginal-35 nm SEC column (Izon Science, Cat #SP5-USD) with an automated fraction collector V1 (Izon Science, Cat #AFC-V1). For each experimental group, EVs released from three 60 mm dishes of mouse hippocampal neurons were pooled and enriched by the SEC method as described above. Then take 10 μl of the enriched EVs from each sample and dilute them with 990 μl EV-free PBS. The samples were centrifuged at 2500×g for 15 mins. Mix 0.5 ml of each sample with 0.5 ml incubation solution. Load 70 μl of each mixture to an ExoView Mouse Tetraspanin chip (Nanoview Bioscience, Cat #EV-TETRA-M2) and incubate overnight at RT in dark. The next day, unbound EVs were washed off the chip by five 3-min washes with the solution A. After incubating with the block solution for 1 hr (RT), the chips were incubated with anti-tetraspanin mixture (Included in the kit, anti-CD81, CF® 555, anti-CD9, CF® […] and anti-CD63, CF® 647) for 1 hr on an orbital shaker. The chips were washed with the solution A twice (3 mins each) and the solution B 5 times (3 min each). The chips were then rinsed in MilliQ water to remove excess solution B. Air dry the chips. A NanoView R100 equipment (Nanoview Bioscience) was used to scan the chips. The data was analyzed by ExoView Analyzer 3.1.4 (Nanoview Bioscience). […] Then, neuron culture medium was carefully removed from dishes. […] Then neurons were washed twice with Veh solution, the saved culture medium was returned and maintained in incubator for assigned durations (37° C., 5% CO2).

PSD95 = system: PSD95
Method: WedgeWell™ Tris-Glycine Mini Protein Gels (Fisher Scientific, Cat #XP04125BOX, XP04120BOX and XV00100PK20) were used for electrophoresis. After electrophoresis, proteins were transferred onto nitrocellulose membranes (Thermo Fisher, Cat #4500002). For WB, the membranes were blocked with 10% bovine serum albumin (BSA, Jackson immunoResearch laboratories, Cat #001-000-162) in TBST solution (Tris-buffered saline, 0.1% Tween 20) for one hour in room temperature (RT). Then membranes were incubated with primary antibodies in incubation solution (3% BSA in TBST) overnight at 4° C. with mild agitation. […] Fiji (NIH) was used for quantification.

neurons = settings: 30 mins treatment
Method: An aliquot of each sample (100 l) was transferred from the culture wells to the wells of a 96-well plate and mixed with 100 μl of the reaction solution provided by the kit. Optical density was measured at 492 nm 45 min later using a Synergy HTX multi-mode microplate reader (Biotek). Background absorbance at 620 nm was subtracted. The maximal releasable LDH in each well was then obtained by a 15 min incubation with 1% Triton X-100 at the end of each experiment.

Notch target genes = settings: 60 mins after treatment

Method for rat hippocampal neurons: DIV 18 rat hippocampal neurons in 6-well plate (cover glasses, Carolina, Cat #633037, 1.5×10^6 cells per well) were used for this assay. At DIV 16, neurons were co-transfected with either 1 μg mCherry+GFP or 1 μg mCherry-Alix+GFP plasmids using HilyMax (Dojindo Cat #H357-15). Two days later, the neurons were used for live cell imaging analysis. Neurons (put in a magnetic imaging chamber, Warner Instruments, Cat #QR-40L) were rinsed three times with warm (37° C.) extracellular solution (pH 7.4, 150 mM NaCl, 5 mM KCl, 1 mM MgCl2, 2 mM CaCl2), 10 mM glucose, 10 mM HEPES). Then the neurons were placed into a heating stage (37° C.) supplied with a humidified 5% CO2 atmosphere and were incubated with this solution for 20 mins in a humidified 5% CO2 atmosphere incubator at 37° C. […] Then the extracellular solution was put back. Images were captured using a Nikon A1R+ confocal laser microscope and a 100× oil objective lens (also was kept at 37° C. during recording). […] The data was imported to Fiji (NIH) for further analysis.

| Compound | effect on Mg^2+-free glycine-induced elevation of activated-Notch1, -Notch2 and Hes1 protein levels (Notch signaling pathway) | effect on Mg^2+-free glycine-induced Alix phosphorylation (Alix) | effect on Mg^2+-free glycine-induced EV release (hippocampal neurons) | also measured |
| --- | --- | --- | --- | --- |
| N[C@H](CCCP(=O)(O)O)C(=O)O [APV, D-2-amino-5-phosphonovalerate] | inhibited | blocked; also recorded: significantly reduced | suppress; also recorded: blocked |  |
| O=C(N/N=C/c1ccc(O)c(O)c1)c1cc2ccccc2cc1O [Dynasore] | blocked elevation |  |  | effect on Mg^2+-free glycine-induced elevation of activated-Notch1, -Notch2 and Hes1 protein levels (Notch signaling pathway; listed as dynasore): inhibited |
| O=S(=O)(NCCNC/C=C/c1ccc(Br)cc1)c1cccc2cnccc12 [H89] |  | significantly inhibit; also recorded: inhibited | suppress; also recorded: blocked |  |
| COc1ccc(S(=O)(=O)N(CCO)c2ccccc2CN(C)C/C=C/c2ccc(Cl)cc2)cc1 [KN93] |  | failed to block |  |  |
| NCC(=O)O [Mg^2+-free glycine, glycine] |  |  |  | levels of activated-Notch1, -Notch2 and Hes1 after Mg^2+-free glycine treatment (Notch signaling pathway; WB): elevated; Alix phosphorylation after Mg^2+-free glycine stimulation (Alix): leads to Alix phosphorylation; neuronal EV biogenesis and release (hippocampal neurons; Mg^2+-free glycine solution, 30 mins): triggered; phosphorylation of Ser295 (pS295) in PSD95 (PSD95): induces; plasma membrane rapture (LDH) (neurons): does not cause; dendritic spine enlargement (rat hippocampal neurons): enlarged dendritic spines; Notch target gene expression (Notch target genes): activated |
| CN[C@@H]1C[C@H]2O[C@@](C)([C@@H]1OC)n1c3ccccc3c3c4c(c5c6ccccc6n2c5c31)C(=O)NC4 [Stau, staurosporine] |  | not significant |  |  |
